From ChEMBL document CHEMBL3507680, “University of Dundee, Gates Library screen for HepG2 cell viability” come the findings set out here.

Each structure is given as a SMILES string.

The data set in a line: Human HepG2 cell viability assay in 384 well format. It is filed as toxicity, cell-based. Also noted: dose 125 nL, time 70.5 hour; concentration not given beside the values. The note with it: HepG2 cells, read-out: Inhibition.
As to `Cc1ccc2c(c1)c(Sc1ccccc1)c(CC(=O)O)n2C`, the cytotoxicity at 70.5 h came out at 1.6%.
Turning to `Cn1c2ccccc2c2ncn(CCCN3CCOCC3)c(=O)c21`, the cytotoxicity at 70.5 h stood at 12.2%.
Take `CC(C)[C@H](NC(=O)N1CCC(Cc2ccccc2)CC1)C(=O)O`: the cytotoxicity at 70.5 h is -8.02%.
On to `CSCC[C@H](NC(=O)N1CCC(Cc2ccccc2)CC1)C(=O)O`, for which the cytotoxicity at 70.5 h is -13.4%.
The value for `CCNCCC(Cc1ccccc1)c1ccco1` (configuration not stated) was -8.72%; that for `CC1=C(C#N)C(=O)N(C)C(=O)/C1=C\C1=Cc2ccccc2OC1` was 8.21%.
Consider `COCCCN(Cc1ccccn1)S(=O)(=O)c1ccc(OC)cc1`, for which the cytotoxicity at 70.5 h is -14.1%.
The value for `Cn1nnc2c(sc3nc(N4CCOCC4)c4c(c32)CCC4)c1=O` was -16%; that for `CC[C@H](C)[C@H](NC(=O)c1ccc(-n2cnnn2)cc1)C(=O)OC` was 10.1%.
Regarding `CSCC[C@@H](CO)NC(=O)c1ccc2nc(NS(C)(=O)=O)sc2c1`, the cytotoxicity at 70.5 h was -1%.
For `Cc1nc(-c2cnn(C)c2)nc2c1CN(C(=O)c1ccc[nH]1)CC2`, the cytotoxicity at 70.5 h was -6.12%.
Consider `CS(=O)(=O)N1C[C@H]2CCC[C@@]2(COCC2CCOCC2)C1`, for which the cytotoxicity at 70.5 h was -4.48%.
The value for `CCc1ccc2c(C3CN(C(C)=O)C3)ncn2c1` was -3.55%; that for `CC(C)N1CCc2ncn(C)c2C1C(=O)NCCN1CCCC1` (configuration not stated) was -8.41%; that for `O=C(c1ncccn1)N1C[C@@H]2CN(CC3CC3)CCO[C@@H]2C1` was -13.4%.
In the case of `CS(=O)(=O)N1CCc2ccc(=O)n(CC3CCOCC3)c2CC1`, the cytotoxicity at 70.5 h is -7.42%.
As to `Cc1ccc2c(c1)C1(CCNCC1)CC2OCC1CC1` (configuration not stated), the cytotoxicity at 70.5 h was -1.43%.
The value for `COCCC(=O)N1Cc2[nH]nc(COc3cccnc3)c2C1` was -13.5%; that for `CN(C)C(=O)CN1C[C@H]2CCN(C(=O)c3ccccc3)CC[C@H]2S1(=O)=O` was -10.6%; that for `CC(C)n1cnc(C2CN(C)c3ccc(C(=O)NC4CCCC4)cc32)n1` (configuration not stated) was -5.54%.
For the compound `CN(Cc1ccccc1)CC1CC2(CO1)CN(c1nncs1)C2` (configuration not stated), the cytotoxicity at 70.5 h is -8.78%.
With `FC1(F)CCNCC12CCN(c1ccccn1)C2` (configuration not stated), the cytotoxicity at 70.5 h was found to be 9.9%.
Consider `Fc1cnc(N2CCCn3c(nnc3Cn3cccn3)C2)nc1`, for which the cytotoxicity at 70.5 h was 12.7%.
The value for `CC(=O)NCC(=O)NC1CCc2c(ccc(=O)n2CC2CC2)C1` (configuration not stated) was -1.98%; that for `CC1c2ncc(COCC3CCOCC3)n2CCN1S(C)(=O)=O` (configuration not stated) was -1.95%.
The value for `Cn1c2c(ccc1=O)CC(NC(=O)Cc1ccsc1)CC2` (configuration not stated) was -2.49%.
The value for `O=S(=O)(C1CC1)N1CCc2ncnc(-c3ccsc3)c2CC1` was -0.114%; that for `O=C(CC1CC1)NC1CCc2c(ccc(=O)n2CC2CC2)C1` (configuration not stated) was 0.842%; that for `FC1(F)CCNCC12CCN(c1ncccn1)C2` (configuration not stated) was -4.34%.
With `Cn1cc(CN2C[C@@H]3COC[C@]3(C(=O)N3CCCO3)C2)cn1`, the cytotoxicity at 70.5 h is -1.04%.
As for `CCOCc1cncc2c1CCN(S(=O)(=O)c1cccc(C)c1)C2`, the figure is -4.1%; as for `O=S(=O)(C1CC1)N1CCc2ncnc(-c3ccc(F)cc3)c2CC1`, 0.906%; as for `CCN1CC[C@]2(CN(C(=O)C3CCOCC3)C[C@H]2c2ccccc2)C1=O`, 0.473%.
The value for `c1cc(CN2CCO[C@@H]3CNC[C@@H]32)co1` was 3.81%; that for `CNC(=O)N1CCN(C(=O)N(C)C)CC2(CC(=O)N(C)C2)C1` (configuration not stated) was -20%; that for `COCC(=O)N1CC[C@H]2N(C)CC[C@@]2(C(=O)Nc2ccccc2)CC1` was -20%.
As for `O=C(c1cccnc1)N1CCN(CC2CC2)c2ncccc2C1`, the cytotoxicity at 70.5 h worked out at 0.755%.
As for `COCC1COCCC12CCN(C(=O)COc1ccccc1)CC2` (configuration not stated), the cytotoxicity at 70.5 h is -14.3%.
As for `Cc1noc([C@@H]2CC[C@@H]3[C@@H](CCN3S(C)(=O)=O)O2)n1`, the figure is -16.7%; as for `CCOCc1cnc2n1CCN(C(=O)C1=CCCC1)C2C` (configuration not stated), -2.23%.
Regarding `CCS(=O)(=O)N1CC[C@H]2O[C@H](c3nc(C)no3)CC[C@H]21`, the cytotoxicity at 70.5 h was -14.9%.
`CCc1ccc(C(=O)N2CC(C(=O)NC(C)C)C3(CCOCC3)C2)cc1` (configuration not stated): the cytotoxicity at 70.5 h was -20.6%.
The value for `CC(C)CCN1C[C@H]2CCN(C(=O)NC3CCCC3)CC[C@H]2S1(=O)=O` was -23.9%.
The value for `COc1ncccc1C(=O)N1CC[C@H]2C[C@@H](c3ccncn3)O[C@@H]2C1` was -18%; that for `CSCC[C@H](N)c1nnc(SCC(=O)Nc2ccc(Br)cc2)o1` was -18.7%.
Take `N[C@@H](Cc1ccccc1)c1nnc(S(=O)(=O)Cc2ccc(Cl)cc2)o1`: the cytotoxicity at 70.5 h is 12.7%.
As to `CC(C)N1CCC2(CC1)C(=O)N(c1cccnc1)c1ccc(F)cc12`, the cytotoxicity at 70.5 h is -0.653%.
As for `CN(C)CCCNCCC(c1ccccc1)C1CCOC(C)(C)C1` (configuration not stated), the figure is -3.41%; as for `CCN(CC)c1ccc2ccc(C(=O)N3CCCCO3)cn12`, 3.7%.
As for `Cn1ccc(C(=O)N2C[C@@H]3CN(CC4CC4)CCO[C@@H]3C2)n1`, the figure is 11.6%; as for `Cc1cccc(COC[C@@]23CCC[C@@H]2CN(S(=O)(=O)N(C)C)C3)n1`, -4.49%; as for `CS(=O)(=O)N1C[C@@H]2COC[C@]2(CN2CCOCC2)C1`, -8.04%.
The value for `CCN1C[C@@H]2CN(c3cc(OC)ncn3)CCC[C@]2(C(=O)O)C1` was -10.9%; that for `COc1cc(N2CCC[C@]3(C(=O)O)CN(C(C)C)C[C@@H]3C2)ncn1` was -3.84%.
With `O=C(c1c[nH]cn1)N1CCC(F)(F)C2(CCN(c3cccc(F)c3)C2)C1` (configuration not stated), the cytotoxicity at 70.5 h was -7.39%.
The value for `COCCN1CCC12CCN(c1ncccn1)C2` (configuration not stated) was -5.32%.
As for `CC(=O)N1CCCC1c1nnn2cc(-c3ccncc3)ccc12` (configuration not stated), the figure is -5.32%; as for `CC(=O)N1CCCC1c1nnn2cc(Nc3ccccc3)ccc12` (configuration not stated), -5.52%.
Take `Cc1ccc(N2C[C@H]3CCC[C@@H](CN4CCOCC4)[C@H]3C2)nn1`: the cytotoxicity at 70.5 h is -1.56%.
On to `Cc1ccc(N2C[C@H]3CCC[C@@H](CN(C)C)[C@H]3C2)nn1`, for which the cytotoxicity at 70.5 h was -0.102%.
As for `Cc1occc1C(=O)N1C[C@@H](OCc2cccnc2)[C@H]2OCCC[C@@H]21`, the figure is -21.3%.
With `Cc1cccc(CN2CC[C@@H]3[C@@H]2CCN3C(=O)c2cc(C)on2)n1`, the cytotoxicity at 70.5 h was -12.4%.
As for `COc1ccc(CN2C[C@@H]3COC[C@@H](CC(=O)N4CCCC4)[C@@H]3C2)cc1`, the figure is -19.9%; as for `Cc1ncsc1CN1C[C@@H]2COC[C@]2(CNC(=O)c2ccccc2)C1`, -7.33%.
As for `Cn1cc(CN2C[C@@H]3COC[C@]3(CNC(=O)c3ccccc3)C2)cn1`, the cytotoxicity at 70.5 h is -13.5%.
The value for `Cc1ccc(CN2C[C@@H]3COC[C@@H](CC(=O)N4CCOCC4)[C@@H]3C2)s1` was -11%.
The value for `COC1COC2(CCN(Cc3ccccc3F)CC2)C1` (configuration not stated) was -8.4%; that for `O=C(C[C@@H]1COC[C@H]2CN(Cc3ccccc3)C[C@@H]12)N1CCCC1` was -14.4%.
With `CN(C)C(=O)C1OC2(CCN(c3ncc(F)cn3)CC2)c2ccccc21` (configuration not stated), the cytotoxicity at 70.5 h was 3.5%.
As to `CS(=O)(=O)N1CCC2(CC1)COC(COc1ccccn1)C2` (configuration not stated), the cytotoxicity at 70.5 h was -12.3%.
The value for `COC[C@@H]1CCC[C@]12CN(CCc1ccccc1)CCO2` was -12.8%.
In the case of `CN1CCC2(COCCN(Cc3ccc4c(c3)OCO4)C2)C1` (configuration not stated), the cytotoxicity at 70.5 h was found to be 13.5%.
In the case of `Cc1noc(C)c1CN1CCc2ncc(CN(C)C)n2CC1`, the cytotoxicity at 70.5 h was -8.78%.
For `O=C(O)c1cc2c(nc1N1CCCC1)CCN(C1CCOCC1)CC2`, the cytotoxicity at 70.5 h was 12%.
`c1cnc2c(c1)CN(C1CCOC1)CCN2CC1CC1` (configuration not stated): the cytotoxicity at 70.5 h is -8.62%.
The value for `O=C(O)c1cc2c(nc1NCC1CC1)CCN(C1CCOC1)CC2` (configuration not stated) was -4.26%; that for `O=C(N1CCCO1)[C@]12COC[C@H]1CN(Cc1cccnc1)C2` was -7.03%.
With `Cn1nccc1-c1ncc2c(c1C(=O)O)CCN(Cc1cccnc1)C2`, the cytotoxicity at 70.5 h is -2.63%.
The value for `COCCN1CCCC12CCN(Cc1cncn1C)CC2` was -1.01%.
The value for `COc1ccc(CN2C[C@H]3CCC[C@@H](CN(C)C)[C@H]3C2)cn1` was -2.35%.
The value for `CO[C@H]1CCN(S(=O)(=O)N(C)C)[C@@H]2CN(Cc3cccnc3)C[C@H]12` was -5.31%; that for `CCS(=O)(=O)N1CC[C@H](OC)[C@H]2CN(Cc3ccncc3)C[C@H]21` was -3.99%; that for `Cc1noc(C)c1CN1C[C@@H](OCc2ccccn2)[C@H]2OCCC[C@H]21` was -16.3%.
Regarding `CC(C)CN1CCC(c2nc3ccc(NC(C)C)cn3n2)CC1`, the cytotoxicity at 70.5 h is -13.1%.
With `c1coc(CN2C[C@@H]3OCCN(CCN4CCCC4)[C@@H]3C2)c1`, the cytotoxicity at 70.5 h was -7.43%.
With `Fc1ccccc1CN1C[C@@H]2CN(Cc3cccnc3)CCO[C@@H]2C1`, the cytotoxicity at 70.5 h was -11.8%.
The value for `COc1ccccc1CN1C[C@@H]2CN(Cc3cccnc3)CCO[C@@H]2C1` was 12.8%; that for `Fc1ccc(CN2C[C@@H]3OCCN(CCN4CCCC4)[C@@H]3C2)cc1` was -6.53%.
As for `Cc1nc(CN2CCN(C3CCOC3)Cc3cccnc32)cs1` (configuration not stated), the figure is -0.337%.
For `O=C(O)c1cc2c(nc1-c1ccncc1)CCN(C1CCOC1)CC2` (configuration not stated), the cytotoxicity at 70.5 h was -4.07%.
For the compound `Cn1nccc1-c1ncc2c(c1C(=O)O)CCN(Cc1ccccc1)C2`, the cytotoxicity at 70.5 h is 11.6%.
Take `Cn1ccnc1CN1C[C@H](N2CCOCC2)[C@@H]2OCCC[C@@H]21`: the cytotoxicity at 70.5 h is -3.14%.
